Experimental data reported in US6479232B1, “Human xenografts for microbicide testing and anatomical modeling” (The Pennsylvania State University, priority 1999, dated 2002).

What was measured:
[1] = set-up: species or system mice; settings: mouse, in vivo
Source text: While it is not intended the present invention be limited to any specific formulation or dimension of silastic tubing, in one embodiment said silastic tubing was fabricated according to the following method. Tubing (0.078 in. inner diameter by 0.125 in. outer diameter; Dow Corning, Midland, Mich.) was filled with 17β-estradiol (1,3,5[10]-Estratriene-3, 17β) (Sigma Chemical Company, St. Louis, Mo.) mixed 1:3 (w/w) with silastic 382 medical grade elastomer (Dow Coming, St. Louis, Mo.). The mixture was allowed to dry and the tubing cut, in one embodiment, to a size (approximately 2×2×1 mm) which yielded a measurable circulating estradiol concentration of about 150-200 pg/ml in mice. It may be noted that this concentration of estradiol approximates the concentration of estrogen in women during the late follicular phase of the menstrual cycle.

[2] = test system: HPV-11; test: HPV-11 infection of human vaginal xenografts engrafted in immunocompromised mouse, virus pre-treated with candidate microbicide; type: in vivo; settings: HPV-11 treated with 0.05% SDS at 37° C. for 10 minutes, then placed in lumen of grafts engrafted ten days in immunocompromised mouse
Source text: In this example, human vaginal xenografts were infected with HPV by inoculating the lumen of said vaginal xenografts, engrafted into a non-human host, with HPV-11 stock virus suspensions prepared according to the methods presented in Example 1. […] Furthermore, it is not necessary to traumatize the walls of said grafts during inoculation to precipitate infection.
In experimental samples, candidate microbicides are mixed with HPV in vitro prior to administration of said HPV/candidate microbicide mixture to the lumen of a vaginal xenograft engrafted into a non-human host. In an alternative experimental embodiment, candidate microbicides were pre-administered to the vaginal lumen, before delivery of a pathogenic agent, into the same lumen.
Xenografts are harvested at 70-90 days and are screened for signs of virus replication. Said screening protocols include quantification of morphologic transformations, viral DNA and RNA synthesis, and protein synthesis. In addition, cell-free extracts of infected xenografts are tested by bioassay for the presence of infectious virus using standard procedures for infection and transformation of vaginal epithelium. […]

[3] = test system: human vaginal xenograft epithelium; test: Survival and morphology of treated epithelium in the human vaginal xenograft; type: in vivo; settings: grafts receiving virus treated with 0.05% SDS
Method: In this example, human vaginal xenografts engrafted for ten days in the subcutaneous space of an immunocompromised mouse were infected with 10 u l of HPV-11, or HPV-11 that had been treated with 0.05% SDS at 37° C. for 10 minutes and then placed in the lumen of the grafts. At varying intervals, the infected human xenografts (or portions thereof) were surgically removed and examined.

[4] = test system: HPVs; settings: cited from earlier work
[5] = some people; cited from earlier work
[6] = test system: HIV; settings: cited from earlier work
[7] = test system: HIV-1; settings: in vitro; cited from earlier work
[8] = test system: HSV-2; settings: in vitro; cited from earlier work

C[C@]12CC[C@@H]3c4ccc(O)cc4CC[C@H]3[C@@H]1CC[C@@H]2O [17β-estradiol, 17β-estradiol (1,3,5[10]-Estratriene-3, 17β)]
circulating estradiol concentration [1]: 150 to 200 pg/mL

CCCCCCCCCCCCOS(=O)(=O)[O-].[Na+] [SDS, Sodium Dodecyl Sulfate]
prevention of virus infection (papillomatous transformation, virus DNA, virus protein) [2]: effectively prevented virus infection | killing of treated epithelium in the vaginal xenograft [3]: did not kill the treated epithelium | morphology of tissues receiving treated virus [3]: stratified squamous epithelium with a morphology analogous to normal in situ vagina

Nonoxynol-9 [N-9]
inactivation of / effectiveness against HPVs [4]: does not inactivate HPVs | irritation and ulceration [5]: may cause irritation and ulceration in some people | prevention of transmission of HIV to women [6]: has not been proven to prevent transmission | inactivation of HIV-1 [7]: inactivates | inactivation of HSV-2 [8]: inactivates
